Assay results from patent publication US9242945B2, “Substituted 2-benzylidene-2H-benzo[b][1,4]thiazin-3(4H)-ones, derivatives thereof, and therapeutic uses thereof” (TEMPLE UNIVERSITY—OF THE COMMONWEALTH SYSTEM OF HIGHER …, priority 2011, dated 2016).
Read-outs that look alike come from different tables or passages of the source.

Tests used:
[1] = system: DU145 (prostate cancer); experiment: Cytotoxicity assay, DU145 tumor cells; assay type: cell-based; conditions: Homo sapiens, DU-145, 96 h treatment
Protocol: (§1) The effect of the compounds of the invention on tumor cells was determined by the assay described by Latham et al., Oncogene 12:827-837 (1996). Tumor cells K562 (chronic myelogenous leukemia; leukemia cell line +ve for Bcr-Abl) or DU145 (prostate cancer) were plated in 12-well dishes at a cell density of 2.5×10^4 cells well. The plated cells were treated 24 hours later with a compound of the invention dissolved in DMSO at multiple concentrations ranging from 0.01 μM to 100 μM. The plates were examined 96 hours later under an inverted microscope, Olympus CK-2 using a 10× objective, and compound activity was noted by physical observation. When necessary, the total number of viable cells was determined by trypsinizing the wells and counting the number of viable cells, as determined by trypan blue exclusion, using a hemacytometer. Where “Lower” and “Upper” value are provided in Table 5, the IC50 was determined to be within that range. When only a “Lower” value is provided and no “Upper” value is listed, the IC50 was that value, or less than or greater than that value, as set forth in the Table.
(§2) The cytotoxicity of Compound 42, (Z)-6-((2,6-dichlorobenzyl)sulfonyl)-2-(4-hydroxy-3-nitrobenzylidene)-2H-benzo[b][1,4]thiazin-3(4H)-one, was determined according the assay method of Example 7 on the prostate (androgen dependent or independent), breast and pancreatic cancer cell lines listed in Table 6A, below, and the additional cell lines listed in Table 6B, below. The human mesenchymal stem cell line HMSC.hTERT and normal human fibroblast cell line HFL was included in the test.

[2] = system: K562 (chronic myelogenous leukemia; leukemia cell line +ve for Bcr-Abl); experiment: Cytotoxicity assay, K562 tumor cells; assay type: cell-based; conditions: Homo sapiens, K562, 96 h treatment
Protocol: as §1, §2

[3] = lower limit of the IC50 range, or the IC50 itself (or its bound) where no Upper value is listed, read-out: DU145 IC50 (μm) Lower (μm)
[4] = upper limit of the IC50 range, read-out: DU145 IC50 (μm) Upper (μm)
[5] = lower limit of the IC50 range, or the IC50 itself (or its bound) where no Upper value is listed, read-out: K562 IC50 (μm) Lower (μm)
[6] = upper limit of the IC50 range, read-out: K562 IC50 (μm) Upper (μm)

Compound | IC50 [1, 3] [nM] | IC50 [1, 4] [nM] | IC50 [2, 5] [nM] | IC50 [2, 6] [nM]
O=C1Nc2cc(S(=O)(=O)Cc3c(Cl)cccc3Cl)ccc2S/C1=C\c1ccc(F)cc1 [Compound 16, (Z)-6-((2,6-dichlorobenzyl)sulfonyl)-2-(4-fluorobenzylidene)-2H-benzo[b][1,4]thiazin-3(4H)-one] | ≥ 1000 | ≤ 10000 | ≥ 1000 | ≤ 10000
Cc1ccc(S(=O)(=O)Oc2ccc(/C=C3\Sc4ccc(S(=O)(=O)Cc5c(Cl)cccc5Cl)cc4NC3=O)cc2[N+](=O)[O-])cc1 [Compound 38, (Z)-4-((6-((2,6-dichlorobenzyl)sulfonyl)-3-oxo-3,4-dihydro-2H-benzo[b][1,4]thiazin-2-ylidene)methyl)-2-nitrophenyl 4-methylbenzenesulfonate] | 90 |  | 100 | 
CC(=O)Oc1ccc(/C=C2\Sc3cc(F)ccc3NC2=O)cc1[N+](=O)[O-] [Compound 6, (Z)-4-((7-fluoro-3-oxo-3,4-dihydro-2H-benzo[b][1,4]thiazin-2-ylidene)methyl)-2-nitrophenyl acetate] |  | ≤ 1000 | ≥ 1000 | ≤ 10000
CC(=O)Oc1ccc(/C=C2\Sc3ccc(F)cc3NC2=O)cc1[N+](=O)[O-] [Compound 7, (Z)-4-((6-fluoro-3-oxo-3,4-dihydro-2H-benzo[b][1,4]thiazin-2-ylidene)methyl)-2-nitrophenyl acetate] | ≥ 1000 | ≤ 10000 | ≥ 1000 | ≤ 10000
O=C1Nc2cc(S(=O)(=O)Cc3c(Cl)cccc3Cl)ccc2S/C1=C\c1ccccc1 [Compound 10, (Z)-2-benzylidene-6-((2,6-dichlorobenzyl)sulfonyl)-2H-benzo[b][1,4]thiazin-3(4H)-one] | < 1000 |  | ≥ 1000 | ≤ 10000
O=C1Nc2cc(S(=O)(=O)Cc3c(Cl)cccc3Cl)ccc2S/C1=C\c1ccc(OCc2ccccc2)c([N+](=O)[O-])c1 [Compound 41, (Z)-2-(4-(benzyloxy)-3-nitrobenzylidene)-6-((2,6-dichlorobenzyl)sulfonyl)-2H-benzo[b][1,4]thiazin-3(4H)-one] | 1500 |  | 750 | 
O=C1Nc2cc(S(=O)(=O)Cc3c(Cl)cccc3Cl)ccc2S/C1=C\c1ccc(Cl)cc1 [Compound 17, (Z)-2-(4-chlorobenzylidene)-6-((2,6-dichlorobenzyl)sulfonyl)-2H-benzo[b][1,4]thiazin-3(4H)-one] | ≥ 1000 | ≤ 10000 | ≥ 1000 | ≤ 10000
CC(=O)Oc1ccc(/C=C2\Sc3ccc(S(=O)(=O)Cc4c(Cl)cccc4Cl)cc3NC2=O)cc1 [Compound 9, (Z)-4-((6-((2,6-dichlorobenzyl)sulfonyl)-3-oxo-3,4-dihydro-2H-benzo[b][1,4]thiazin-2-ylidene)methyl)phenyl acetate] | < 1000 |  | < 1000 | 
CC(=O)Oc1ccc(/C=C2\Sc3ccc(Cl)cc3NC2=O)cc1[N+](=O)[O-] [Compound 1, (Z)-4-((6-chloro-3-oxo-3,4-dihydro-2H-benzo[b][1,4]thiazin-2-ylidene)methyl)-2-nitrophenyl acetate] | ≥ 1000 | ≤ 10000 | ≥ 10000 | ≤ 25000
CN1CCN(c2ccc(/C=C3\Sc4ccc(S(=O)(=O)Cc5c(Cl)cccc5Cl)cc4NC3=O)cc2)CC1 [Compound 13, (Z)-6-((2,6-dichlorobenzyl)sulfonyl)-2-(4-(4-methylpiperazin-1-yl)benzylidene)-2H-benzo[b][1,4]thiazin-3(4H)-one] | ≥ 1000 | ≤ 10000 | ≥ 500 | ≤ 1000
COc1ccc2c(c1)S/C(=C\c1ccc(OC(C)=O)c([N+](=O)[O-])c1)C(=O)N2 [Compound 2, (Z)-4-((7-methoxy-3-oxo-3,4-dihydro-2H-benzo[b][1,4]thiazin-2-ylidene)methyl)-2-nitrophenyl acetate] | ≥ 1000 | ≤ 10000 | ≥ 1000 | ≤ 10000
O=C1Nc2ccc(F)cc2S/C1=C\c1ccc(O)c([N+](=O)[O-])c1 [Compound 44, (Z)-7-fluoro-2-(4-hydroxy-3-nitrobenzylidene)-2H-benzo[b][1,4]thiazin-3(4H)-one] | 750 |  | 250 | 
O=C1Nc2cc(S(=O)(=O)Cc3c(Cl)cccc3Cl)ccc2S/C1=C\c1ccc(Cl)cc1Cl [Compound 22, (Z)-6-((2,6-dichlorobenzyl)sulfonyl)-2-(2,4-dichlorobenzylidene)-2H-benzo[b][1,4]thiazin-3(4H)-one] | ≥ 1000 | ≤ 10000 | ≥ 1000 | ≤ 10000
O=C1Nc2cc(S(=O)(=O)Cc3c(Cl)cccc3Cl)ccc2S/C1=C\c1ccnc(N2CCOCC2)n1 [Compound 37, (Z)-6-((2,6-dichlorobenzyl)sulfonyl)-2-((2-morpholinopyrimidin-4-yl)methylene)-2H-benzo[b][1,4]thiazin-3(4H)-one] | ≥ 1000 | ≤ 10000 | ≥ 1000 | ≤ 10000
CC(=O)Oc1ccc(/C=C2\Sc3cc(C)ccc3NC2=O)cc1[N+](=O)[O-] [Compound 4, (Z)-4-((7-methyl-3-oxo-3,4-dihydro-2H-benzo[b][1,4]thiazin-2-ylidene)methyl)-2-nitrophenyl acetate] | ≥ 1000 | ≤ 10000 | ≥ 1000 | ≤ 10000
CC(=O)Oc1ccc(/C=C2\Sc3cc(C(=O)O)ccc3NC2=O)cc1[N+](=O)[O-] [Compound 5, (Z)-2-(4-acetoxy-3-nitrobenzylidene)-3-oxo-3,4-dihydro-2H-benzo[b][1,4]thiazine-7-carboxylic acid] | > 100000 |  | ≥ 50000 | ≤ 100000
O=C1Nc2cc(S(=O)(=O)Cc3c(Cl)cccc3Cl)ccc2S/C1=C\c1cccs1 [Compound 33, (Z)-6-((2,6-dichlorobenzyl)sulfonyl)-2-(thiophen-2-ylmethylene)-2H-benzo[b][1,4]thiazin-3(4H)-one] | ≥ 500 | ≤ 1000 | ≥ 500 | ≤ 1000
COc1ccc(/C=C2\Sc3ccc(S(=O)(=O)Cc4c(Cl)cccc4Cl)cc3NC2=O)cc1[N+](=O)[O-] [Compound 11, (Z)-6-((2,6-dichlorobenzyl)sulfonyl)-2-(4-methoxy-3-nitrobenzylidene)-2H-benzo[b][1,4]thiazin-3(4H)-one] | ≥ 250 | ≤ 500 | ≥ 250 | ≤ 500
O=C1Nc2ccc(F)cc2S/C1=C\c1ccc(OCc2ccccc2)c([N+](=O)[O-])c1 [Compound 43, (Z)-2-(4-(benzyloxy)-3-nitrobenzylidene)-7-fluoro-2H-benzo[b][1,4]thiazin-3(4H)-one] | > 10000 |  | > 10000 | 
CC(=O)Oc1ccc(/C=C2\Sc3ccc(S(=O)(=O)Cc4c(Cl)cccc4Cl)cc3NC2=O)cc1[N+](=O)[O-] [Compound 8, (Z)-4-((6-((2,6-dichlorobenzyl)sulfonyl)-3-oxo-3,4-dihydro-2H-benzo[b][1,4]thiazin-2-ylidene)methyl)-2-nitrophenyl acetate] | 100 |  | 75 | 
CC(=O)n1cc(/C=C2\Sc3ccc(S(=O)(=O)Cc4c(Cl)cccc4Cl)cc3NC2=O)c2ccccc21 [Compound 26, (Z)-2-((1-acetyl-1H-indol-3-yl)methylene)-6-((2,6-dichlorobenzyl)sulfonyl)-2H-benzo[b][1,4]thiazin-3(4H)-one] | ≥ 500 | ≤ 1000 | ≥ 500 | ≤ 1000
O=C1Nc2cc(S(=O)(=O)Cc3c(Cl)cccc3Cl)ccc2S/C1=C\c1ccc(Br)cc1 [Compound 18, (Z)-2-(4-bromobenzylidene)-6-((2,6-dichlorobenzyl)sulfonyl)-2H-benzo[b][1,4]thiazin-3(4H)-one] | ≥ 1000 | ≤ 10000 | ≥ 1000 | ≤ 10000
O=C1Nc2cc(S(=O)(=O)Cc3c(Cl)cccc3Cl)ccc2S/C1=C\c1ccc(-c2nn[nH]n2)cc1 [Compound 39, (Z)-2-(4-(2H-tetrazol-5-yl)benzylidene)-6-((2,6-dichlorobenzyl)sulfonyl)-2H-benzo[b][1,4]thiazin-3(4H)-one] | ≥ 1000 | ≤ 10000 | ≥ 1000 | ≤ 10000
O=C1Nc2cc(S(=O)(=O)Cc3c(Cl)cccc3Cl)ccc2S/C1=C\c1ccc(F)cc1F [Compound 30, (Z)-6-((2,6-dichlorobenzyl)sulfonyl)-2-(2,4-difluorobenzylidene)-2H-benzo[b][1,4]thiazin-3(4H)-one] | ≥ 1000 | ≤ 10000 | ≥ 1000 | ≤ 10000
